In brackets after ≈: the same amount, converted by molar mass.
System: Staphylococcus aureus
Experiment: Antibacterial activity against Staphylococcus aureus ATCC 29213 incubated for 16 hrs by UV/Visible absorbance method
Assay type: functional
Conditions: not given

Going from `CC[C@H](C)[C@H](NC(=O)[C@@H](Cc1ccccc1)NC)C(=O)N[C@@H](CO)C(=O)N[C@H](CCC(N)=O)C(=O)N[C@@H](C(=O)N[C@H](C(=O)N[C@@H](CO)C(=O)N[C@H]1C(=O)N[C@@H](C)C(=O)N[C@@H](CCCNC(=N)N)CC(=O)N[C@@H]([C@@H](C)CC)CC(=O)O[C@H]1C)[C@@H](C)CC)[C@@H](C)CC` to `CC[C@H](C)[C@H](NC(=O)[C@@H](Cc1ccccc1)NC)C(=O)N[C@@H](CO)C(=O)N[C@H](CCC(N)=O)C(=O)N[C@@H](C(=O)N[C@H](C(=O)N[C@@H](CO)C(=O)N[C@H]1C(=O)N[C@@H](C)CC(=O)N[C@@H](CCCNC(=N)N)CC(=O)N[C@@H]([C@@H](C)CC)CC(=O)O[C@H]1C)[C@@H](C)CC)[C@@H](C)CC`, the MIC rises from 4 µg/mL (≈ 3.14 µM) to 16 µg/mL (≈ 12.4 µM) (4-fold).

First: CC[C@H](C)[C@H](NC(=O)[C@@H](Cc1ccccc1)NC)C(=O)N[C@@H](CO)C(=O)N[C@H](CCC(N)=O)C(=O)N[C@@H](C(=O)N[C@H](C(=O)N[C@@H](CO)C(=O)N[C@H]1C(=O)N[C@@H](C)CC(=O)N[C@@H](CCCNC(=N)N)C(=O)N[C@@H]([C@@H](C)CC)CC(=O)O[C@H]1C)[C@@H](C)CC)[C@@H](C)CC
Second: CC[C@H](C)[C@H](NC(=O)[C@@H](Cc1ccccc1)NC)C(=O)N[C@@H](CO)C(=O)N[C@H](CCC(N)=O)C(=O)N[C@@H](C(=O)N[C@H](C(=O)N[C@@H](CO)C(=O)N[C@H]1C(=O)N[C@@H](C)C(=O)N[C@@H](CCCNC(=N)N)C(=O)N[C@@H]([C@@H](C)CC)CC(=O)O[C@H]1C)[C@@H](C)CC)[C@@H](C)CC
The MIC of the first is 8-fold higher: 32 µg/mL (≈ 25.1 µM) for the first, 4 µg/mL (≈ 3.18 µM) for the second.

`CC[C@H](C)[C@@H]1NC(=O)[C@H](CCCNC(=N)N)NC(=O)[C@H](C)NC(=O)[C@H](NC(=O)[C@H](CO)NC(=O)[C@@H](NC(=O)[C@H](NC(=O)[C@@H](CCC(N)=O)NC(=O)[C@H](CO)NC(=O)[C@@H](NC(=O)[C@@H](Cc2ccccc2)NC)[C@@H](C)CC)[C@@H](C)CC)[C@@H](C)CC)[C@@H](C)NC1=O` and `CC[C@H](C)[C@@H]1NC(=O)[C@H](CCCNC(=N)N)NC(=O)[C@H](C)NC(=O)[C@@H](NC(=O)[C@H](CO)NC(=O)[C@@H](NC(=O)[C@H](NC(=O)[C@@H](CCC(N)=O)NC(=O)[C@H](CO)NC(=O)[C@@H](NC(=O)[C@@H](Cc2ccccc2)NC)[C@@H](C)CC)[C@@H](C)CC)[C@@H](C)CC)[C@H](C)NC1=O` cannot be ordered by MIC: greater than 32 µg/mL for the first, greater than 32 µg/mL for the second.

Going from `CC[C@H](C)[C@H](NC(=O)[C@@H](Cc1ccccc1)NC)C(=O)N[C@@H](CO)C(=O)N[C@H](CCC(N)=O)C(=O)N[C@@H](C(=O)N[C@H](C(=O)N[C@@H](CO)C(=O)N[C@H]1C(=O)N[C@@H](C)C(=O)N[C@@H](CCCNC(=N)N)CC(=O)N[C@@H]([C@@H](C)CC)C(=O)O[C@H]1C)[C@@H](C)CC)[C@@H](C)CC` to `CC[C@H](C)[C@H](NC(=O)[C@@H](Cc1ccccc1)NC)C(=O)N[C@@H](CO)C(=O)N[C@H](CCC(N)=O)C(=O)N[C@@H](C(=O)N[C@H](C(=O)N[C@@H](CO)C(=O)N[C@H]1C(=O)N[C@@H](C)CC(=O)N[C@@H](CCCNC(=N)N)CC(=O)N[C@@H]([C@@H](C)CC)C(=O)O[C@H]1C)[C@@H](C)CC)[C@@H](C)CC`, the MIC rises from 8 µg/mL (≈ 6.36 µM) to greater than 32 µg/mL.

First: CC[C@H](C)[C@H](NC(=O)[C@@H](Cc1ccccc1)NC)C(=O)N[C@@H](CO)C(=O)N[C@H](CCC(N)=O)C(=O)N[C@@H](C(=O)N(C)[C@H](C(=O)N[C@@H](CO)C(=O)N[C@H]1C(=O)N[C@@H](C)CC(=O)N[C@@H](CCCNC(=N)N)C(=O)N[C@@H]([C@@H](C)CC)C(=O)O[C@H]1C)[C@@H](C)CC)[C@@H](C)CC
Second: CC[C@H](C)[C@@H]1NC(=O)[C@H](CCCNC(=N)N)NC(=O)[C@H](C)NC(=O)[C@@H](NC(=O)[C@H](CO)NC(=O)[C@@H](NC(=O)[C@H](NC(=O)[C@@H](CCC(N)=O)NC(=O)[C@H](CO)NC(=O)[C@@H](NC(=O)[C@@H](Cc2ccccc2)NC)[C@@H](C)CC)[C@@H](C)CC)[C@@H](C)CC)[C@@H](C)NC1=O
The MIC of the first is lower: 32 µg/mL (≈ 25.1 µM) for the first, greater than 32 µg/mL for the second.

`CC[C@H](C)[C@H](NC(=O)[C@@H](Cc1ccccc1)NC)C(=O)N[C@@H](CO)C(=O)N[C@H](CCC(N)=O)C(=O)N[C@@H](C(=O)N[C@H](C(=O)N[C@@H](CO)C(=O)N[C@H]1C(=O)N[C@@H](C)C(=O)N[C@@H](C)C(=O)N[C@@H]([C@@H](C)CC)C(=O)O[C@H]1C)[C@@H](C)CC)[C@@H](C)CC` and `CC[C@H](C)[C@@H]1NC(=O)[C@H](CCCNC(=N)N)NC(=O)[C@H](C)NC(=O)[C@H](NC(=O)[C@H](CO)NC(=O)[C@@H](NC(=O)[C@H](NC(=O)[C@@H](CCC(N)=O)NC(=O)[C@H](CO)NC(=O)[C@@H](NC(=O)[C@@H](Cc2ccccc2)NC)[C@@H](C)CC)[C@@H](C)CC)[C@@H](C)CC)[C@H](C)NC1=O` are the same in MIC: 1 µg/mL (≈ 0.863 µM) for the first, 1 µg/mL (≈ 0.804 µM) for the second.

System: Staphylococcus aureus
Experiment: Antibacterial activity against methicillin resistant Staphylococcus aureus ATCC 33591 incubated for 24 hrs
Assay type: functional
Conditions: not given

Going from `CC[C@H](C)[C@H](NC(=O)[C@@H](Cc1ccccc1)NC)C(=O)N[C@@H](CO)C(=O)N[C@H](CCC(N)=O)C(=O)N[C@@H](C(=O)N[C@H](C(=O)N[C@@H](CO)C(=O)N[C@H]1C(=O)N[C@@H](C)C(=O)N[C@H](C)C(=O)N[C@@H]([C@@H](C)CC)C(=O)O[C@H]1C)[C@@H](C)CC)[C@@H](C)CC` to `CC[C@H](C)[C@H](NC(=O)[C@@H](Cc1ccccc1)NC)C(=O)N[C@@H](CO)C(=O)N[C@H](CCC(N)=O)C(=O)N[C@@H](C(=O)N[C@H](C(=O)N[C@@H](CO)C(=O)N[C@H]1C(=O)N[C@@H](C)C(=O)N[C@@H](C)C(=O)N[C@@H]([C@@H](C)CC)C(=O)O[C@H]1C)[C@@H](C)CC)[C@@H](C)CC`, the MIC falls from 32 µg/mL (≈ 27.6 µM) to 1 µg/mL (≈ 0.863 µM) (32-fold).

`CC[C@H](C)[C@H](NC(=O)[C@@H](Cc1ccccc1)NC)C(=O)N[C@@H](C)C(=O)N[C@H](CCC(N)=O)C(=O)N[C@@H](C(=O)N[C@H](C(=O)N[C@@H](CO)C(=O)N[C@H]1C(=O)N[C@@H](C)C(=O)N[C@@H](CCCNC(=N)N)C(=O)N[C@@H]([C@@H](C)CC)C(=O)O[C@H]1C)[C@@H](C)CC)[C@@H](C)CC` and `CC[C@H](C)[C@H](NC(=O)[C@@H](Cc1ccccc1)NC)C(=O)N[C@@H](CO)C(=O)N[C@H](C)C(=O)N[C@@H](C(=O)N[C@H](C(=O)N[C@@H](C)C(=O)N[C@H]1C(=O)N[C@@H](C)C(=O)N[C@@H](CCCNC(=N)N)C(=O)N[C@@H]([C@@H](C)CC)C(=O)O[C@H]1C)[C@@H](C)CC)[C@@H](C)CC` are the same in MIC: 1 µg/mL (≈ 0.814 µM) for the first, 1 µg/mL (≈ 0.854 µM) for the second.

System: Staphylococcus aureus
Experiment: Antibacterial activity against Staphylococcus aureus SH1000 incubated for 24 hrs by CLSI-broth microdilution method
Assay type: functional
Conditions: not given

In the case of `CCCCC1NC(=O)[C@H](CCCN/C(=N\C)NC)NC(=O)[C@H](C)NC(=O)[C@H](NC(=O)[C@H](CO)NC(=O)[C@@H](NC(=O)[C@H](NC(=O)[C@@H](CCC(N)=O)NC(=O)[C@H](CO)NC(=O)[C@@H](NC(=O)[C@@H](Cc2ccccc2)NC)[C@@H](C)CC)[C@@H](C)CC)[C@@H](C)CC)[C@H](C)OC1=O` (stereo in doubt; 127), the MIC is reported as 16 µg/mL (≈ 12.6 µM).

Same assay, conditions: Staphylococcus aureus, SH1000, read-out: MIC

Going from `CCCC1NC(=O)[C@H](CCCNC(=N)N)NC(=O)[C@H](C)NC(=O)[C@H](NC(=O)[C@H](CO)NC(=O)[C@@H](NC(=O)[C@H](NC(=O)[C@@H](CCC(N)=O)NC(=O)[C@H](CO)NC(=O)[C@@H](NC(=O)[C@@H](Cc2ccccc2)NC)[C@@H](C)CC)[C@@H](C)CC)[C@@H](C)CC)[C@H](C)OC1=O` (some centres not stated) to `CCC1NC(=O)[C@H](CCCNC(=N)N)NC(=O)[C@H](C)NC(=O)[C@H](NC(=O)[C@H](CO)NC(=O)[C@@H](NC(=O)[C@H](NC(=O)[C@@H](CCC(N)=O)NC(=O)[C@H](CO)NC(=O)[C@@H](NC(=O)[C@@H](Cc2ccccc2)NC)[C@@H](C)CC)[C@@H](C)CC)[C@@H](C)CC)[C@H](C)OC1=O` (some centres not stated), the MIC rises from 8 µg/mL (≈ 6.5 µM) to 16 µg/mL (≈ 13.2 µM) (2-fold).

Going from `CCCCC1NC(=O)[C@H](CCCN/C(=N\C)NC)NC(=O)[C@H](C)NC(=O)[C@H](NC(=O)[C@H](CO)NC(=O)[C@@H](NC(=O)[C@H](NC(=O)[C@@H](CCC(N)=O)NC(=O)[C@H](CO)NC(=O)[C@@H](NC(=O)[C@@H](Cc2ccccc2)NC)[C@@H](C)CC)[C@@H](C)CC)[C@@H](C)CC)[C@H](C)OC1=O` (stereo in doubt; 128) to `CCCCC1NC(=O)[C@H](CCCNC(=N)NC)NC(=O)[C@H](C)NC(=O)[C@H](NC(=O)[C@H](CO)NC(=O)[C@@H](NC(=O)[C@H](NC(=O)[C@@H](CCC(N)=O)NC(=O)[C@H](CO)NC(=O)[C@@H](NC(=O)[C@@H](Cc2ccccc2)NC)[C@@H](C)CC)[C@@H](C)CC)[C@@H](C)CC)[C@H](C)OC1=O` (some centres not stated), the MIC falls from 16 µg/mL (≈ 12.6 µM) to 4 µg/mL (≈ 3.18 µM) (4-fold).

`CC[C@H](C)[C@H](NC(=O)[C@@H](Cc1ccccc1)NC)C(=O)N[C@@H](CO)C(=O)N[C@H](CCC(N)=O)C(=O)N[C@@H](C(=O)N[C@H](C(=O)N[C@@H](CO)C(=O)N[C@H]1C(=O)N[C@@H](C)C(=O)N[C@@H](CCCNC(=N)N)C(=O)NC(CCCC(F)(F)F)C(=O)O[C@H]1C)[C@@H](C)CC)[C@@H](C)CC` (some centres not stated) and `C=CCCC1NC(=O)[C@H](CCCNC(=N)N)NC(=O)[C@H](C)NC(=O)[C@H](NC(=O)[C@H](CO)NC(=O)[C@@H](NC(=O)[C@H](NC(=O)[C@@H](CCC(N)=O)NC(=O)[C@H](CO)NC(=O)[C@@H](NC(=O)[C@@H](Cc2ccccc2)NC)[C@@H](C)CC)[C@@H](C)CC)[C@@H](C)CC)[C@H](C)OC1=O` (some centres not stated) are the same in MIC: 32 µg/mL (≈ 24.6 µM) for the first, 32 µg/mL (≈ 25.8 µM) for the second.

For `CC[C@H](C)[C@H](NC(=O)[C@@H](Cc1ccccc1)NC)C(=O)N[C@@H](CO)C(=O)N[C@H](CCC(N)=O)C(=O)N[C@@H](C(=O)N[C@H](C(=O)N[C@@H](CO)C(=O)N[C@H]1C(=O)N[C@@H](C)C(=O)N[C@@H](CCCNC(=N)N)C(=O)N[C@@H](C)C(=O)O[C@H]1C)[C@@H](C)CC)[C@@H](C)CC`, the MIC was no less than 32 µg/mL.

System: Bacillus subtilis
Experiment: Antibacterial activity against Bacillus subtilis ATCC 6051 incubated for 16 hrs by UV/Visible absorbance method
Assay type: functional
Conditions: not given

Compared with `CC[C@H](C)[C@H](NC(=O)[C@@H](C)NC(=O)[C@@H](CCC(N)=O)NC(=O)[C@H](CO)NC(=O)[C@@H](NC(=O)[C@@H](Cc1ccccc1)NC)[C@@H](C)CC)C(=O)N[C@@H](CO)C(=O)N[C@H]1C(=O)N[C@@H](C)C(=O)N[C@@H](CCCCN)C(=O)N[C@@H]([C@@H](C)CC)C(=O)O[C@H]1C`, `CC[C@H](C)[C@H](NC(=O)[C@H](NC(=O)[C@@H](CCC(N)=O)NC(=O)[C@H](CO)NC(=O)[C@H](C)NC(=O)[C@@H](Cc1ccccc1)NC)[C@@H](C)CC)C(=O)N[C@@H](CO)C(=O)N[C@H]1C(=O)N[C@@H](C)C(=O)N[C@@H](CCCCN)C(=O)N[C@@H]([C@@H](C)CC)C(=O)O[C@H]1C` is 2-fold higher in MIC: 16 µg/mL (≈ 13.6 µM) for the first, 32 µg/mL (≈ 27.2 µM) for the second.

`CC[C@H](C)[C@H](NC(=O)[C@@H](Cc1ccccc1)NC)C(=O)N[C@@H](CO)C(=O)N[C@H](CCC(N)=O)C(=O)N[C@@H](C(=O)NC(C(=O)N[C@@H](CO)C(=O)N[C@H]1C(=O)N[C@@H](C)C(=O)N[C@@H](CCCNC(=N)N)C(=O)NC(C2CCCCC2)C(=O)O[C@H]1C)C1CCCCC1)[C@@H](C)CC` (some centres not stated) showed an MIC of 1 µg/mL (≈ 0.771 µM).

Source: ChEMBL document CHEMBL4680273, “Teixobactin: A Paving Stone toward a New Class of Antibiotics?” (2020)
